Structures are written as SMILES. Like-named read-outs stand apart in the source and are kept apart here. Where only a bound is given, the exact number is not on record here.

Series [1] concerns the target CDK2/Cyclin A (Homo sapiens, UniProt P24941). Put plainly: Inhibition of CDK2/Cyclin A kinase activity (ADP-Glo). It is filed as biochemical. The gist of the method: (§1)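 ADP-Glo luminescence quantified ATP consumption after a 40-60 minute, 25° C. reaction with ATP plus CDKtide, Histone H1 or PDKtide, following a 10-minute compound–kinase preincubation in DTT-supplemented kinase buffer A. Compounds spanned 11 concentrations from 50 μM in 4-fold dilutions; IC50 fitted to a four-parameter model.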
In general terms: In ADP-Glo the light output rises with the ADP produced.

Series [2] can be described thus: General cytotoxicity on primary differentiated HepaRG cells (72 h). The class given is cell-based. Conditions: human, general toxicity, mean value from several measurements. The gist of the method: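 Test compounds spanning 200 μM to 0.2 nM were incubated for 72 hours with primary differentiated HepaRG cells. Cells had been kept one week in supplemented hepatic medium and seeded the night before at 25×10^3 per well, and viability was then measured.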

In series [3] the target is CDK9/Cyclin K (Homo sapiens, UniProt P50750). As to the kind of experiment: Inhibition of CDK9/Cyclin K kinase activity (ADP-Glo). The class given is biochemical. Summed up: as §1
CDK9/Cyclin K, sequence (P50750 whole entry): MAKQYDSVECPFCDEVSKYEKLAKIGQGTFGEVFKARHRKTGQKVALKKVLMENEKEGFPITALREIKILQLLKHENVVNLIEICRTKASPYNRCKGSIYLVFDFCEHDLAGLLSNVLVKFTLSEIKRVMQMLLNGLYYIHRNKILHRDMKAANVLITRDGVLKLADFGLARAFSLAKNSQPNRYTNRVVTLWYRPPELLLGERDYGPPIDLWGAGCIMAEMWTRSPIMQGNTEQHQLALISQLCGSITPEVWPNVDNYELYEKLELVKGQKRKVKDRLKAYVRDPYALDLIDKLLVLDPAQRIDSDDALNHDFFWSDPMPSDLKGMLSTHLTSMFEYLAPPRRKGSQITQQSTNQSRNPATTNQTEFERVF
CDK9/Cyclin K, sequence (O75909 whole entry partner): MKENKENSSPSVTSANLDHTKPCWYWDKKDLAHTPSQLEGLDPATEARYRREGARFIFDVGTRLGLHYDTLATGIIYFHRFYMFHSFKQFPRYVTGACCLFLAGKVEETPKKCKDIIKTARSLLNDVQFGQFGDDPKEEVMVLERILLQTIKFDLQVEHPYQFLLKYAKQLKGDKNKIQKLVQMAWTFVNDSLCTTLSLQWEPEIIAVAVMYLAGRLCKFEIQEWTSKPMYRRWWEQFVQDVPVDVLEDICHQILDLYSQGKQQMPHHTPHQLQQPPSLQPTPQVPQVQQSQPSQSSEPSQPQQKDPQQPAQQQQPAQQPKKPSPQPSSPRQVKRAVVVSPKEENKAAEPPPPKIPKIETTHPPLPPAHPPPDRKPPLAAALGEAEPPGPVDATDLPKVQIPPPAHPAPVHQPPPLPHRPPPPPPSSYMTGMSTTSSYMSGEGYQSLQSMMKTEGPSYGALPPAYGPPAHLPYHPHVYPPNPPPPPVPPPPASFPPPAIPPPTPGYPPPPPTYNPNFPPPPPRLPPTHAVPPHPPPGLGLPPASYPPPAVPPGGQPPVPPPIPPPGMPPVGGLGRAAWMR
A short description of series [4]: Microsomal stability in human liver microsomes (HLM). The class given is in vitro ADME. Conditions: 1 μM test compound. (Microsomes from liver hold many membrane-bound enzymes, among them those of drug oxidation.)
[5] abbreviates: mean of multiple measurement series, ATP 50 μM, read-out: CDK2/Cyclin A IC50.
Where [6] appears, read: mean value from several measurements, read-out: IC50 CDK2/Cyclin A.
The mark [7] stands for this setting: mean of multiple measurement series, ATP 50 μM, read-out: CDK9/Cyclin K IC50.
The mark [8] stands for this setting: mean value from several measurements, read-out: IC50 CDK9/Cyclin K.

`CN1CCCc2c(-c3nc(N[C@H]4CCC(C)(C)NC4)ncc3C(F)(F)F)c[nH]c2C1=O` [CDK7_1187, 3-(2-{[(3S)-6,6-dimethylpiperidin-3-yl]amino}-5-(trifluoromethyl)py-rimidin-4-yl)-7-methyl-1H,4H,5H,6H,7H, 8H-pyrrolo[2,3-c]azepin-8-one]: the IC50 is 15700 nM in series [1] (setting [5]), over 200 nM in series [1] (setting [6]), 182 nM in series [3] (setting [7]) and over 200 nM in series [3] (setting [8]). In series [2], this compound registered a CC50 at 72 h of over 2000 nM. In addition, the “In vitro clearance CLint (HLM)” value in series [4] is reported as “B (50 μl/(min · mg of protein) > Clint > 20 μl/(min · mg of protein))”.
Consider `CC1(C)CC[C@H](Nc2ncc(C(F)(F)F)c(-c3c[nH]c4c3CCCN(C3CC3)C4=O)n2)CN1` [CDK7_1225, 7-cyclopropyl-3-(2-{[(3S)-6,6-dimethylpiperidin-3-yl]amino}-5-(trifluoromethyl)py-rimidin-4-yl)-1H,4H,5H,6H,7H, 8H-pyrrolo[2,3-c]azepin-8-one], for which the IC50 in series [1] (setting [5]) was 13900 nM; in series [1] (setting [6]), over 200 nM; in series [3] (setting [7]), 441 nM; in series [3] (setting [8]), over 200 nM. Moreover, the CC50 at 72 h in series [2] was over 2000 nM. Moreover, the “In vitro clearance CLint (HLM)” value in series [4] is reported as “A (Clint < 20 μl/(min · mg of protein))”.
For the compound `CC1CCc2c(-c3nc(N[C@H]4CCCNC4)ncc3C(F)(F)F)c[nH]c2C(=O)N1C` (stereo partly drawn) [CDK7_1254, 6,7-dimethyl-3-(2-{[(3S)-piperidin-3-yl]amino}-5-(trifluoromethyl)py-rimidin-4-yl)-1H,4H,5H,6H,7H, 8H-pyrrolo[2,3-c]azepin-8-one], the IC50 in series [1] (setting [6]) and in series [3] (setting [8]) was over 200 nM each time. Further, in series [2], the CC50 at 72 h was over 2000 nM. Besides, the “In vitro clearance CLint (HLM)” value in series [4] is listed as “A (Clint < 20 μl/(min · mg of protein))”.

For orientation: CC50 means the concentration at which the toxic effect on the cells reaches its halfway point. A low value points to harm at low concentration.

For the origin of these results see patent US20260137698A1, “CYCLIN-DEPENDENT KINASE 7 INHIBITORS” (JOINT STOCK COMPANY «BIOCAD», priority 2022, published 2026).
